According to patent publication US9260760B2, “Method for determining complete response to anticancer therapy” (Board of Regents, The University of Texas System, priority 2012, dated 2016):
Values joined by “and” are separate entries in the source; they are usually repeats but may differ in a detail not shown here. Equal values may be shown once.

What was measured:
[1] = system: metastatic colorectal cancer; assay: Study 1: retrospective cohort, XCEL with or without radiation; tumor response (RECIST), PFS and OS; assay type: in vivo, human
From the text: The institutional review board of The University of Texas M. D. Anderson Cancer Center approved this retrospective expanded cohort study. Between October 2000 and December 2003, seventy-four patients with metastatic colorectal cancer received capecitabine with concurrent celecoxib (n=66), or rofecoxib (n=2), ibuprofen (n=2), sulindac (n=2) and high dose aspirin (n=2).
The radiation was delivered to the target area using 18 MV photons with 3-D conformal planning technique. The dose of radiation was either 35-40 Gy (n=18) or >45 Gy (n=15) with dose radiation missing in one patient. […] Celecoxib was continued with capecitabine to prevent HFS and to improve survival.
All patients were subjected to routine clinical examinations, laboratory analyses, and computed tomography. Patients were seen weekly during radiotherapy if treated on site or every 6-9 weeks with physical examinations, laboratory tests, and computed tomography. Treatment-related toxicity was graded using the National Institutes of Health's Common Toxicities Criteria (CTC) version 2.0. Tumor responses were evaluated using RECIST criteria. Complete response was defined as complete radiographic disappearance of measurable or evaluable disease or stable, minimal radiographic findings; partial response was defined as reduction of the longest dimension of measurable disease by at least 50%; stable disease was defined as reduction of the longest dimension by less than 25%; These responses or stable must be confirmed at least by 3 months interval evaluation; Progressive disease was defined as growth of the tumor by more than 25% in the longest dimension or development of new lesions. Overall response rate was defined as the sum of the complete and partial response rates and the tumor control rate was defined as the sum of overall response rates with stable disease rates. The date of death was ascertained through the cancer registry or through a search of patients' social security numbers in the Social Security Death Index (ssdi.genealogy.rootsweb.com). The cutoff point for collection of data was April 2004.
Continuous variables were summarized using the mean (±standard deviation) or the median (range). […] Progression-free and overall survival distributions were summarized using the method of Kaplan and Meier. Differences in progression-free and overall survival by subgroup were analyzed using the log-rank test. Multivariate models of predictors of progression-free survival and overall survival were evaluated using the proportional hazards (Cox) regression model. P<0.05 was considered statistically significant.

[2] = Study 3: treatment-related toxicity of XCEL (CTCAE version 3.0); details: in vivo
From the text: The institutional review board approved this study. […] All patients had clinical examinations, laboratory and CT scan every 2-3 months.
The principal investigator and two board-certified radiologists reviewed all the CT scan images. CR was defined according to the RECIST criteria as complete disappearance of measurable or none-measurable disease. Effective CR (eCR) was coined to describe normalization of an anatomical structure (e.g. nodes) that cannot regress completely. Confirmed CR included those patients who had CR by meeting the RECIST criteria or had achieved eCR or pathological CR. Near CR (nCR) were defined as almost complete disappearance (95-99%) of measurable disease on CT scan. Relapse free survival (RFS) was defined as the time from first radiologic CR to first recurrence, progression, or death. […] OS was defined as the time from first radiologic CR to death from any cause. Treatment related toxicity was graded in accordance with the National Cancer Institute Common Toxicity Criteria for Adverse Events, version 3.0.

[3] = earlier study, cited from earlier work
[4] = First-line responders, no radiation (n = 5)
[5] = First-line responders, radiation (n = 4)
[6] = First-line, no radiation (n = 14)
[7] = Second-line, no radiation (n = 13)
[8] = Second-line, radiation (n = 20)
[9] = second-line XCEL, progressed on 5FU and irinotecan (n=28)
[10] = second-line with 9 first-line responding patients included
[11] = second-line, irinotecan refractory

For Cc1ccc(-c2cc(C(F)(F)F)nn2-c2ccc(S(N)(=O)=O)cc2)cc1 [XCEL], the “Overall Survival, Median (95% CI)” value ([1]; All) was 22.0 (17.8-31.5) months, the “Progression-free survival, Median (95% CI)” value ([1]; All) was 8.3 (7.0-11.0) months and the “Overall Survival, Median (95% CI)” value ([1]; CEA >3.0 ng/ml) was 20.0 (16.2-26.9) months. For the same compound, the “Progression-free survival, Median (95% CI)” value ([1]; CEA >3.0 ng/ml) was 7.1 (5.7-9.4) months, the “Overall Survival, Median (95% CI)” value ([1]; CEA ≦3.0 ng/ml) was 31.5 (18.0-NR) months and the “Progression-free survival, Median (95% CI)” value ([1]; CEA ≦3.0 ng/ml) was 16.8 (9.4-NR) months. The Complete response [1, 4] was 4 (80) No. of patients (%), the Overall response [1, 4] was 4 (80) No. of patients (%) and the Partial response [1, 4] was 0 (0) No. of patients (%). The Stable disease [1, 4] was 0 (0) No. of patients (%), the Tumor control [1, 4] was 4 (80) No. of patients (%) and the Complete response [1, 5] was 3 (75) No. of patients (%). For the same compound, the Overall response [1, 5] was 4 (100) No. of patients (%), the Partial response [1, 5] was 1 (0) No. of patients (%) and the Stable disease [1, 5] was 0 (0) No. of patients (%). For the same compound, the Tumor control [1, 5] was 4 (100) No. of patients (%), the Complete response [1, 6] was 1 (7) No. of patients (%) and the Overall response [1, 6] was 4 (29) No. of patients (%). The Partial response [1, 6] was 3 (21) No. of patients (%), the Stable disease [1, 6] was 8 (57) No. of patients (%) and the Tumor control [1, 6] was 12 (86) No. of patients (%). The Complete response ([1]; First-line, radiation (n = 10)) was 3 (30) No. of patients (%), the Overall response ([1]; First-line, radiation (n = 10)) was 4 (40) No. of patients (%) and the Partial response ([1]; First-line, radiation (n = 10)) was 3 (20) No. of patients (%). For the same compound, the Stable disease ([1]; First-line, radiation (n = 10)) was 4 (40) No. of patients (%), the Tumor control ([1]; First-line, radiation (n = 10)) was 8 (80) No. of patients (%) and the “Progression-free survival, Median (95% CI)” value ([1]; LDH >618) was 6.4 (4.3-7.2) months. For the same compound, the “Progression-free survival, Median (95% CI)” value ([1]; LDH ≦618) was 14.5 (9.2-26.3) months, the “Overall Survival, Median (95% CI)” value ([1]; LDH ≦618 (normal level of LDH)) was 31 months and 31.5 (23.6-NR) months and the “Overall Survival, Median (95% CI)” value ([1]; No Radiation (RT)) was 20.0 (16.6-22.8) months. The “Progression-free survival, Median (95% CI)” value ([1]; No Radiation (RT)) was 7.2 (4.8-9.4) months, the Complete response ([1]; No radiation (n = 32)) was 4 (13) No. of patients (%) and the Overall response ([1]; No radiation (n = 32)) was 10 (31) No. of patients (%). The Partial response ([1]; No radiation (n = 32)) was 6 (19) No. of patients (%), the “Stable disease (>4 months)” value ([1]; No radiation (n = 32)) was 13 (41) No. of patients (%) and the Tumor control ([1]; No radiation (n = 32)) was 23 (72) No. of patients (%). For the same compound, the “Overall Survival, Median (95% CI)” value ([1]; No surgery) was 19.3 (16.2-26.9) months, the “Progression-free survival, Median (95% CI)” value ([1]; No surgery) was 7.8 (6.4-9.4) months and the “Progression-free survival, Median (95% CI)” value ([1]; RT <45 Gy) was 8.0 (6.4-14.6) months. The “Overall Survival, Median (95% CI)” value ([1]; RT ≧45 Gy) was 21.8 (17.6-NR) months, the “Progression-free survival, Median (95% CI)” value ([1]; RT ≧45 Gy) was 21.2 (7.1-21.2) months and the Complete response ([1]; Radiation (n = 34)) was 9 (26) No. of patients (%). The Overall response ([1]; Radiation (n = 34)) was 15 (44) No. of patients (%), the Partial response ([1]; Radiation (n = 34)) was 6 (18) No. of patients (%) and the “Stable disease (>4 months)” value ([1]; Radiation (n = 34)) was 12 (35) No. of patients (%). For the same compound, the Tumor control ([1]; Radiation (n = 34)) was 27 (79) No. of patients (%), the Complete response [1, 7] was 0 No. of patients (%) and the Overall response [1, 7] was 2 (15) No. of patients (%). The Partial response [1, 7] was 2 (15) No. of patients (%), the Stable disease [1, 7] was 5 (38) No. of patients (%) and the Tumor control [1, 7] was 7 (54) No. of patients (%). The Complete response [1, 8] was 2 (10) No. of patients (%), the Overall response [1, 8] was 7 (35) No. of patients (%) and the Partial response [1, 8] was 5 (25) No. of patients (%). The Stable disease [1, 8] was 8 (40) No. of patients (%), the Tumor control [1, 8] was 15 (75) No. of patients (%) and the “Progression-free survival, Median (95% CI)” value ([1]; Surgery) was 16.8 (8.3-31.4) months. For the same compound, the “patients achieving complete response” value ([1]; after first-line response to irinotecan-based therapy) was 7 of 9, the “second line overall response rate” value ([1]; all 9 first-line irinotecan responders included) was 40.5% and the “complete response (CR)” value ([1]; all 66 patients) was 20%. The overall response rate ([1]; all 66 patients) was 38%, the “partial response (PR)” value ([1]; all 66 patients) was 18% and the tumor control rate ([1]; all 66 patients) was 76%. The “median PFS” value ([1]; first-line XCEL) was 8.3 months, the median overall survival ([1]; first-line XCEL) was 26.9 months and the “Stable disease (%)” value ([1]; first-line XCEL (n=24)) was 50%. For the same compound, the “complete response (CR)” value ([1]; first-line XCEL (n=24)) was 17%, the overall response rate ([1]; first-line XCEL (n=24)) was 34% and 33% and the tumor control rate ([1]; first-line XCEL (n=24)) was 84%. The complete responses ([1]; nineteen of 66 patients, XCEL alone or with radiation) was 29%, the “complete response by site” value ([1]; nodal metastasis) was 51% and the “complete response by site” value ([1]; peritoneum) was 40%. The “Stable disease (%)” value ([1]; second-line XCEL (n=28)) was 50%, the “complete response (CR)” value [1, 9] was 7% and the overall response rate [1, 9] was 25%. The tumor control rate [1, 9] was 68%, the median overall survival [1, 10] was 19.3 months and the “median progression free survival” value [1, 10] was 8.3 months. For the same compound, the “median PFS” value [1, 11] was 6.7 months, the median overall survival [1, 11] was 17.8 months and 17.6 months and the “Median mean corpuscular volume (MCV) increase from baseline after XCEL” value [2] was 11.5. The cardiovascular toxicities [2] was “No cardiovascular toxicities were encountered”, the “incidence of grade ⅔ HFS” value ([3]; capecitabine 1000 mg/m2/d bid (Lin et al., 2002)) was 12.5% and the “grade ¾ diarrhea” value ([3]; versus capecitabine alone (Lin et al., 2002)) was “reduced”.
